# Results taken from ChEMBL document CHEMBL4118281, “Azoalkyl ether imidazo[2,1-b]benzothiazoles as potentially antimicrobial agents with novel structural skeleton” (2018).
# Columns and labels:
# Cyberlindnera jadinii = test: Antifungal activity against Candida utilis after 24 hrs by two fold serial dilution based spectrophotometric analysis; type: functional; conditions: Williopsis jadinii
# Bacillus = test: Antibacterial activity against Bacillus proteus ATCC 13315 after 24 hrs by micro broth dilution method; type: functional; conditions: ATCC 13315, 24 h
# Salmonella typhi = test: Antibacterial activity against Bacillus typhi after 24 hrs by micro broth dilution method; type: functional, Salmonella enterica subsp. enterica serovar Typhi; conditions: Salmonella enterica
# Aspergillus flavus = test: Antifungal activity against Aspergillus flavus after 24 hrs by two fold serial dilution based spectrophotometric analysis; type: functional
# Micrococcus luteus = test: Antibacterial activity against Micrococcus luteus ATCC 4698 after 24 hrs by micro broth dilution method; type: functional; conditions: NCTC 2665, 24 h
# Staphylococcus aureus [1] = test: Antibacterial activity against methicillin-resistant Staphylococcus aureus N315 after 24 hrs by micro broth dilution method; type: functional; conditions: N315, 24 h
# Escherichia coli [2] = test: Antibacterial activity against Escherichia coli DH52 after 24 hrs by micro broth dilution method; type: functional; conditions: DH52, 24 h
# Pseudomonas aeruginosa = test: Antibacterial activity against Pseudomonas aeruginosa after 24 hrs by micro broth dilution method; type: functional
# Staphylococcus aureus [3] = test: Antibacterial activity against Staphylococcus aureus ATCC 25923 after 24 hrs by micro broth dilution method; type: functional; conditions: ATCC 25923, 24 h
# Shigella dysenteriae = test: Antibacterial activity against Shigella dysenteriae after 24 hrs by micro broth dilution method; type: functional
# Bacillus subtilis = test: Antibacterial activity against Bacillus subtilis after 24 hrs by micro broth dilution method; type: functional
# Candida albicans = test: Antifungal activity against Candida albicans after 24 hrs by two fold serial dilution based spectrophotometric analysis; type: functional
# Pichia norvegensis = test: Antifungal activity against Candida mycoderma after 24 hrs by two fold serial dilution based spectrophotometric analysis; type: functional
# Saccharomyces cerevisiae = test: Antifungal activity against Beer yeast after 24 hrs by two fold serial dilution based spectrophotometric analysis; type: functional
# Escherichia coli [4] = test: Antibacterial activity against Escherichia coli JM109 after 24 hrs by micro broth dilution method; type: functional; conditions: JM109, 24 h
SMILES,MIC (Cyberlindnera jadinii) [µg/mL],MIC (Bacillus) [µg/mL],MIC (Salmonella typhi) [µg/mL],MIC (Aspergillus flavus) [µg/mL],MIC (Micrococcus luteus) [µg/mL],MIC (Staphylococcus aureus [1]) [µg/mL],MIC (Escherichia coli [2]) [µg/mL],MIC (Pseudomonas aeruginosa) [µg/mL],MIC (Staphylococcus aureus [3]) [µg/mL],MIC (Shigella dysenteriae) [µg/mL],MIC (Bacillus subtilis) [µg/mL],MIC (Candida albicans) [µg/mL],MIC (Pichia norvegensis) [µg/mL],MIC (Saccharomyces cerevisiae) [µg/mL],MIC (Escherichia coli [4]) [µg/mL]
CCOc1ccc2c(c1)sc1nc(-c3ccccc3)c(COCCCCCCCCCCn3cnc([N+](=O)[O-])c3)n12,512,256,32,64,512,32,64,32,128,8,32,256,128,256,512
CCOc1ccc2c(c1)sc1nc(-c3ccccc3)c(COCCCn3cnc([N+](=O)[O-])c3)n12,128,512,256,32,256,512,512,512,128,256,256,16,32,> 512,256
CCOc1ccc2c(c1)sc1nc(-c3ccccc3)c(COCCCCCCCCCCn3c([N+](=O)[O-])cnc3C)n12,256,256,256,512,512,128,256,128,128,16,32,128,256,64,512
c1ccc(-c2nc3sc4ccccc4n3c2COCCCCCCCCCCn2cncn2)cc1,> 512,128,16,16,64,16,32,32,32,16,16,16,16,16,64
OC(Cn1cncn1)(Cn1cncn1)c1ccc(F)cc1F [FLUCONAZOLE],8,–,–,256,–,–,–,–,–,–,–,1,4,16,–
BrCCCCCOCc1c(-c2ccccc2)nc2sc3ccccc3n12,64,16,128,16,256,16,16,16,32,16,4,4,64,16,16
c1ccc(-c2nc3sc4ccccc4n3c2COCCCCCn2cncn2)cc1,64,32,32,16,256,16,32,32,16,8,32,4,8,8,16
CCOc1ccc2c(c1)sc1nc(-c3ccccc3)c(COCCCCCn3c([N+](=O)[O-])cnc3C)n12,256,> 512,–,128,256,–,512,512,128,–,512,32,128,128,> 512
CCOc1ccc2c(c1)sc1nc(-c3ccccc3)c(COCCCCCn3cnc([N+](=O)[O-])c3)n12,128,512,256,256,512,> 512,128,512,128,16,256,128,256,128,> 512
O=[N+]([O-])c1cn(CCCCCOCc2c(-c3ccccc3)nc3sc4ccccc4n23)cn1,> 512,64,128,64,256,8,128,512,32,128,128,16,16,32,128
Cc1ncc([N+](=O)[O-])n1CCCCCOCc1c(-c2ccccc2)nc2sc3ccccc3n12,128,16,32,16,64,8,8,8,4,16,16,8,64,> 512,2
